Data taken from US11377442B2, “Small molecule agonists and antagonists of NR2F6 activity” (ZANDER THERAPEUTICS, INC., priority 2016, dated 2022).
Read-outs that look alike come from different tables or passages of the source. Blank lines part the entries; values can stand above or below the compound they belong to.

Assays:
Format in all cases: cell-based
NR2F6 = target: T1, NR2F6 (Homo sapiens, UniProt P10588); assay: NR2F6 agonist screening, Firefly signal cmpd/DMSO
T1 construct: expressed in transfected cells; also transient transfection
T1 sequence (P10588 1-404): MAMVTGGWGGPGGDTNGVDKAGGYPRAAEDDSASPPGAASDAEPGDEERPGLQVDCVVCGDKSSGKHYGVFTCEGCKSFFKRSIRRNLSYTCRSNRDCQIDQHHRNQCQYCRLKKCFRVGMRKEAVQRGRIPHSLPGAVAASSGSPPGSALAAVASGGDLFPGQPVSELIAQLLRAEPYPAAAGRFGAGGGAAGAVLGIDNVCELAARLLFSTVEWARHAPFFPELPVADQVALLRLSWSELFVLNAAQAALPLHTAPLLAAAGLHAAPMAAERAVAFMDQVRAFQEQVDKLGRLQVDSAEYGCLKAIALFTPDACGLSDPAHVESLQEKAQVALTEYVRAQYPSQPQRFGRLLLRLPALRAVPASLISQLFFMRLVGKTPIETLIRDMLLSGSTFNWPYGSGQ

Renilla = Renilla signal in NR2F6 agonist screening, cmpd/DMSO; details: Renilla, F4
HEK293 pGL4 = assay: Firefly_pGL signal, cmpd/DMSO (pGL4 control cells); details: Homo sapiens
NR2F6 LBD = target: T2, NR2F6 LBD (Homo sapiens, UniProt P10588); assay: NR2F6 LBD transient transfection; details: LBD
T2 construct: expressed in transfected cells
T2 sequence (P10588 165-393 limits assumed): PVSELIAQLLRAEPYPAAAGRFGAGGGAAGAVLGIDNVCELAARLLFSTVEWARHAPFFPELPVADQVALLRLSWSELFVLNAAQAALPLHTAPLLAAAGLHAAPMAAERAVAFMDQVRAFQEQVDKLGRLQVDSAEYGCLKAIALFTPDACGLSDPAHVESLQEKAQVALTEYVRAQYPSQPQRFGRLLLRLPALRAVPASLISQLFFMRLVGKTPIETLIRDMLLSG
Outline: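 LBD-transfected cells treated at 40, 10, 2 and 0.5 μM (4 replicates); cytotoxicity measured in parallel, normalized to DMSO (0%) and zero signal (100%). Higher concentrations excluded where signal loss reflected toxicity.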

[1] = read-out: Renilla, F4, cmpd/DMSO (mean)
[2] = 1% FBS, read-out: Renilla, F4, 1% FBS, cmpd/DMSO (mean)
[3] = 10% FBS, read-out: Renilla, F4, 10% FBS, cmpd/DMSO (mean)
[4] = HEK293, 0.5 uM, pGL4, read-out: Firefly pGL4, cmpd/DMSO (mean)
[5] = HEK293, 2 uM, pGL4, read-out: Firefly pGL4, cmpd/DMSO (mean)
[6] = HEK293, 10 uM, pGL4, read-out: Firefly pGL4, cmpd/DMSO (mean)
[7] = HEK293, 40 uM, pGL4, read-out: Firefly pGL4, cmpd/DMSO (mean)
[8] = HEK293, pGL4, 1% FBS, 0.5 uM, read-out: Firefly, pGL4, 1% FBS, cmpd/DMSO (mean)
[9] = HEK293, pGL4, 1% FBS, 2 uM, read-out: Firefly, pGL4, 1% FBS, cmpd/DMSO (mean)
[10] = HEK293, pGL4, 1% FBS, 10 uM, read-out: Firefly, pGL4, 1% FBS, cmpd/DMSO (mean)
[11] = HEK293, pGL4, 1% FBS, 40 uM, read-out: Firefly, pGL4, 1% FBS, cmpd/DMSO (mean)
[12] = HEK293, pGL4, 10% FBS, 0.5 uM, read-out: Firefly, pGL4, 10% FBS, cmpd/DMSO (mean)
[13] = HEK293, pGL4, 10% FBS, 2 uM, read-out: Firefly, pGL4, 10% FBS, cmpd/DMSO (mean)
[14] = HEK293, pGL4, 10% FBS, 10 uM, read-out: Firefly, pGL4, 10% FBS, cmpd/DMSO (mean)
[15] = HEK293, pGL4, 10% FBS, 40 uM, read-out: Firefly, pGL4, 10% FBS, cmpd/DMSO (mean)

Firefly F4, cmpd/DMSO (mean) (NR2F6; 0.5 uM): 1.3
Firefly F4, cmpd/DMSO (mean) (NR2F6; 2 uM): 1.5
Firefly F4, cmpd/DMSO (mean) (NR2F6; 10 uM): 5.1
Firefly F4, cmpd/DMSO (mean) (NR2F6; 40 uM): 2.2
F4, Firefly/Renilla for S/B(F4) > 3 (NR2F6; 1% FBS, 10 uM): 2.3
Firefly, F4/pGL4 for S/B(F4) > 3 (NR2F6; 1% FBS, 10 uM): 1.7
F4, Firefly/Renilla for S/B(F4) > 3 (NR2F6; 10% FBS, 10 uM): 2.1
Firefly, F4/pGL4 for S/B(F4) > 3 (NR2F6; 10% FBS, 10 uM): 1.8
Firefly, F4, 1% FBS, cmpd/DMSO (mean) (NR2F6; 1% FBS, 0.5 uM): 0.8
Firefly, F4, 1% FBS, cmpd/DMSO (mean) (NR2F6; 1% FBS, 2 uM): 1.2
Firefly, F4, 1% FBS, cmpd/DMSO (mean) (NR2F6; 1% FBS, 10 uM): 4.7
Firefly, F4, 1% FBS, cmpd/DMSO (mean) (NR2F6; 1% FBS, 40 uM): 0.2
Firefly, F4, 10% FBS, cmpd/DMSO (mean) (NR2F6; 10% FBS, 0.5 uM): 1.0
Firefly, F4, 10% FBS, cmpd/DMSO (mean) (NR2F6; 10% FBS, 2 uM): 1.2
Firefly, F4, 10% FBS, cmpd/DMSO (mean) (NR2F6; 10% FBS, 10 uM): 3.6
Firefly, F4, 10% FBS, cmpd/DMSO (mean) (NR2F6; 10% FBS, 40 uM): 1.7
Firefly LBD, cmpd/DMSO (mean) (NR2F6 LBD; 0.5 uM): 1.1
Firefly LBD, cmpd/DMSO (mean) (NR2F6 LBD; 2 uM): 1.7
Firefly LBD, cmpd/DMSO (mean) (NR2F6 LBD; 10 uM): 4.1
Firefly LBD, cmpd/DMSO (mean) (NR2F6 LBD; 40 uM): 0.8
SMILES: CC(C)CN[C@H]1CS(=O)(=O)C[C@@H]1S(=O)(=O)c1ccc(Cl)cc1 [Compound D120]
fold induction at 0.5 µM (Renilla; [1]): 1
fold induction at 2 µM (Renilla; [1]): 1.2
fold induction at 10 µM (Renilla; [1]): 1.7
fold induction at 40 µM (Renilla; [1]): 1.6
fold induction at 0.5 µM (Renilla; [2]): 1
fold induction at 2 µM (Renilla; [2]): 1.3
fold induction at 10 µM (Renilla; [2]): 2.1
fold induction at 40 µM (Renilla; [2]): 0.6
fold induction at 0.5 µM (Renilla; [3]): 1
fold induction at 2 µM (Renilla; [3]): 1.1
fold induction at 10 µM (Renilla; [3]): 1.7
fold induction at 40 µM (Renilla; [3]): 1.5
fold induction at 0.5 µM (HEK293 pGL4; [4]): 1.4
fold induction at 2 µM (HEK293 pGL4; [5]): 1.5
fold induction at 10 µM (HEK293 pGL4; [6]): 3.7
fold induction at 40 µM (HEK293 pGL4; [7]): 0.8
fold induction at 0.5 µM (HEK293 pGL4; [8]): 1.5
fold induction at 2 µM (HEK293 pGL4; [9]): 1.5
fold induction at 10 µM (HEK293 pGL4; [10]): 2.8
fold induction at 40 µM (HEK293 pGL4; [11]): 0.9
fold induction at 0.5 µM (HEK293 pGL4; [12]): 1.1
fold induction at 2 µM (HEK293 pGL4; [13]): 1.7
fold induction at 10 µM (HEK293 pGL4; [14]): 2
fold induction at 40 µM (HEK293 pGL4; [15]): 0.7

Firefly F4, cmpd/DMSO (mean) (NR2F6; 0.5 uM): 1.6
Firefly F4, cmpd/DMSO (mean) (NR2F6; 2 uM): 3.3
Firefly F4, cmpd/DMSO (mean) (NR2F6; 10 uM): 6.8
Firefly F4, cmpd/DMSO (mean) (NR2F6; 40 uM): 0.7
F4, Firefly/Renilla for S/B(F4) > 3 (NR2F6; 1% FBS, 2 uM): 2.3
Firefly, F4/pGL4 for S/B(F4) > 3 (NR2F6; 1% FBS, 2 uM): 1.3
F4, Firefly/Renilla for S/B(F4) > 3 (NR2F6; 10% FBS, 10 uM): 3.9
Firefly, F4/pGL4 for S/B(F4) > 3 (NR2F6; 10% FBS, 10 uM): 3.1
Firefly, F4, 1% FBS, cmpd/DMSO (mean) (NR2F6; 1% FBS, 0.5 uM): 1.4
Firefly, F4, 1% FBS, cmpd/DMSO (mean) (NR2F6; 1% FBS, 2 uM): 3.2
Firefly, F4, 1% FBS, cmpd/DMSO (mean) (NR2F6; 1% FBS, 10 uM): 2.8
Firefly, F4, 1% FBS, cmpd/DMSO (mean) (NR2F6; 1% FBS, 40 uM): 0.3
Firefly, F4, 10% FBS, cmpd/DMSO (mean) (NR2F6; 10% FBS, 0.5 uM): 1.5
Firefly, F4, 10% FBS, cmpd/DMSO (mean) (NR2F6; 10% FBS, 2 uM): 1.8
Firefly, F4, 10% FBS, cmpd/DMSO (mean) (NR2F6; 10% FBS, 10 uM): 11
Firefly, F4, 10% FBS, cmpd/DMSO (mean) (NR2F6; 10% FBS, 40 uM): 0.5
Activity, cmpd/DMSO (NR2F6; Table 31): 6.6
Firefly LBD, cmpd/DMSO (mean) (NR2F6 LBD; 0.5 uM): 1.2
Firefly LBD, cmpd/DMSO (mean) (NR2F6 LBD; 2 uM): 2.5
Firefly LBD, cmpd/DMSO (mean) (NR2F6 LBD; 10 uM): 3.1
Firefly LBD, cmpd/DMSO (mean) (NR2F6 LBD; 40 uM): 0.6
SMILES: O=S1(=O)C[C@H](N2CCCC2)[C@@H](S(=O)(=O)c2ccc(Cl)cc2)C1 [Compound D122]
fold induction at 0.5 µM (Renilla; [1]): 1.1
fold induction at 2 µM (Renilla; [1]): 1.3
fold induction at 10 µM (Renilla; [1]): 2.2
fold induction at 40 µM (Renilla; [1]): 0.2
fold induction at 0.5 µM (Renilla; [2]): 1.2
fold induction at 2 µM (Renilla; [2]): 1.4
fold induction at 10 µM (Renilla; [2]): 2.2
fold induction at 0.5 µM (Renilla; [3]): 1
fold induction at 2 µM (Renilla; [3]): 1
fold induction at 10 µM (Renilla; [3]): 2.9
fold induction at 0.5 µM (HEK293 pGL4; [4]): 1.3
fold induction at 2 µM (HEK293 pGL4; [5]): 2.4
fold induction at 10 µM (HEK293 pGL4; [6]): 2.3
fold induction at 40 µM (HEK293 pGL4; [7]): 0.6
fold induction at 0.5 µM (HEK293 pGL4; [8]): 1.1
fold induction at 2 µM (HEK293 pGL4; [9]): 2.5
fold induction at 10 µM (HEK293 pGL4; [10]): 2.6
fold induction at 40 µM (HEK293 pGL4; [11]): 0.7
fold induction at 0.5 µM (HEK293 pGL4; [12]): 0.9
fold induction at 2 µM (HEK293 pGL4; [13]): 2.2
fold induction at 10 µM (HEK293 pGL4; [14]): 3.7
fold induction at 40 µM (HEK293 pGL4; [15]): 0.7
